Laboratory results: PubChem BioAssay AID1963443 (Molecular Pharmacology Branch, DTP, NCI, 2024)
Values belong to the compound of their own block, whether it stands above or below them.

Tested on: MDA-MB-231 complex spheroids, growth inhibition
Assay: Anticancer human tumor MDA-MB-231 cell line growth inhibition [Asc];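 further: spheroids exposed to compounds for 7 days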
Conditions: for IC50: curve of first compound; for viability, T/C: stronger effect = lower value
In short: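 Tumor cells were grown as complex spheroids with human endothelial cells (HUVEC) and human mesenchymal stem cells as stroma. Agents were tested alone and in combination, in half-log steps down from the clinical Cmax, or from 10 microM where Cmax was unknown.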

[1] = second compound 0.1 µM, first compound 0.00316 µM
[2] = second compound 0.1 µM, first compound 0.01 µM
[3] = second compound 0.1 µM, first compound 0.0316 µM
[4] = second compound 0.1 µM, first compound 0.1 µM
[5] = second compound 0.1 µM, first compound 0.316 µM
[6] = second compound 0.1 µM, first compound 1 µM
[7] = second compound 0.316 µM, first compound 0.00316 µM
[8] = second compound 0.316 µM, first compound 0.01 µM
[9] = second compound 0.316 µM, first compound 0.0316 µM
[10] = second compound 0.316 µM, first compound 0.1 µM
[11] = second compound 0.316 µM, first compound 0.316 µM
[12] = second compound 0.316 µM, first compound 1 µM
[13] = second compound 1 µM, first compound 0.00316 µM
[14] = second compound 1 µM, first compound 0.01 µM
[15] = second compound 1 µM, first compound 0.0316 µM
[16] = second compound 1 µM, first compound 0.1 µM
[17] = second compound 1 µM, first compound 0.316 µM
[18] = second compound 1 µM, first compound 1 µM
[19] = second compound 3.16 µM, first compound 0.0316 µM
[20] = second compound 3.16 µM, first compound 0.1 µM
[21] = second compound 3.16 µM, first compound 0.316 µM
[22] = second compound 3.16 µM, first compound 1 µM
[23] = second compound 10 µM, first compound 0.0316 µM
[24] = second compound 10 µM, first compound 0.1 µM
[25] = second compound 10 µM, first compound 0.316 µM
[26] = second compound 10 µM, first compound 1 µM
[27] = second compound 0.1 µM, first compound 3.16 µM
[28] = second compound 0.1 µM, first compound 10 µM
[29] = second compound 0.316 µM, first compound 3.16 µM
[30] = second compound 0.316 µM, first compound 10 µM
[31] = second compound 1 µM, first compound 3.16 µM
[32] = second compound 1 µM, first compound 10 µM
[33] = second compound 0.01 µM, first compound 0.0316 µM
[34] = second compound 0.01 µM, first compound 0.1 µM
[35] = second compound 0.01 µM, first compound 0.316 µM
[36] = second compound 0.01 µM, first compound 1 µM
[37] = second compound 0.0316 µM, first compound 0.0316 µM
[38] = second compound 0.0316 µM, first compound 0.1 µM
[39] = second compound 0.0316 µM, first compound 0.316 µM
[40] = second compound 0.0316 µM, first compound 1 µM
[41] = second compound 0.01 µM, first compound 3.16 µM
[42] = second compound 0.01 µM, first compound 10 µM
[43] = second compound 0.0316 µM, first compound 3.16 µM
[44] = second compound 0.0316 µM, first compound 10 µM

SMILES: CCN1CCN(Cc2ccc(Nc3ncc(F)c(-c4cc(F)c5nc(C)n(C(C)C)c5c4)n3)nc2)CC1 + Cc1c(S(C)(=O)=O)c(-c2cc(F)cc(N3CCN(c4ccc(NS(=O)(=O)c5ccc(NC(CCN6CCC(C(=O)OCCCP(=O)(O)O)CC6)CSc6ccccc6)c(S(=O)(=O)C(F)(F)F)c5)cc4)CC3)c2)c(-c2ccc(Cl)cc2)n1C(C)C
IC50 (second compound 0.1 µM): 0.648 µM
IC50 (second compound 0.316 µM): > 1 µM
IC50 (second compound 1 µM): 0.306 µM
IC50 (second compound 3.16 µM): 0.258 µM
IC50 (second compound 10 µM): 0.308 µM
viability, T/C [1]: 97.4%
viability, T/C [2]: 97.9%
viability, T/C [3]: 84%
viability, T/C [4]: 65.6%
viability, T/C [5]: 47.9%
viability, T/C [6]: 51.5%
viability, T/C [7]: 103%
viability, T/C [8]: 95.4%
viability, T/C [9]: 84.9%
viability, T/C [10]: 64.8%
viability, T/C [11]: 49.7%
viability, T/C [12]: 53.1%
viability, T/C [13]: 98.1%
viability, T/C [14]: 93.2%
viability, T/C [15]: 87.7%
viability, T/C [16]: 67.6%
viability, T/C [17]: 49.5%
viability, T/C [18]: 42.1%
viability, T/C (second compound 3.16 µM, first compound 0.00316 µM): 95.9%
viability, T/C (second compound 3.16 µM, first compound 0.01 µM): 91.9%
viability, T/C [19]: 83.8%
viability, T/C [20]: 63.8%
viability, T/C [21]: 47.7%
viability, T/C [22]: 36.5%
viability, T/C (second compound 10 µM, first compound 0.00316 µM): 104%
viability, T/C (second compound 10 µM, first compound 0.01 µM): 97.7%
viability, T/C [23]: 93.6%
viability, T/C [24]: 76.9%
viability, T/C [25]: 48.7%
viability, T/C [26]: 32.2%

SMILES: C=C(F)C(=O)N1CCN(c2nc(OCC3CCCN3C)nc3c2CCN(c2cccc4cccc(Cl)c24)C3)CC1CC#N (configuration not stated) + Cc1c(S(C)(=O)=O)c(-c2cc(F)cc(N3CCN(c4ccc(NS(=O)(=O)c5ccc(NC(CCN6CCC(C(=O)OCCCP(=O)(O)O)CC6)CSc6ccccc6)c(S(=O)(=O)C(F)(F)F)c5)cc4)CC3)c2)c(-c2ccc(Cl)cc2)n1C(C)C
IC50 (second compound 0.1 µM): 2.29 µM
IC50 (second compound 0.316 µM): 2.11 µM
IC50 (second compound 1 µM): 1.85 µM
IC50 (second compound 3.16 µM): 1.74 µM
IC50 (second compound 10 µM): 1.71 µM
viability, T/C [3]: 92.2%
viability, T/C [4]: 97.2%
viability, T/C [5]: 97.2%
viability, T/C [6]: 101%
viability, T/C [27]: 31.6%
viability, T/C [28]: 0.12%
viability, T/C [9]: 106%
viability, T/C [10]: 108%
viability, T/C [11]: 106%
viability, T/C [12]: 109%
viability, T/C [29]: 18.6%
viability, T/C [30]: 0.09%
viability, T/C [15]: 103%
viability, T/C [16]: 100%
viability, T/C [17]: 97.5%
viability, T/C [18]: 97.4%
viability, T/C [31]: 8.81%
viability, T/C [32]: 0.09%
viability, T/C [19]: 95.8%
viability, T/C [20]: 93%
viability, T/C [21]: 94.9%
viability, T/C [22]: 91.8%
viability, T/C (second compound 3.16 µM, first compound 3.16 µM): 4.45%
viability, T/C (second compound 3.16 µM, first compound 10 µM): 0.09%
viability, T/C [23]: 104%
viability, T/C [24]: 100%
viability, T/C [25]: 99.7%
viability, T/C [26]: 91.3%
viability, T/C (second compound 10 µM, first compound 3.16 µM): 2.9%
viability, T/C (second compound 10 µM, first compound 10 µM): 0.14%

SMILES: C=C(F)C(=O)N1CCN(c2nc(OCC3CCCN3C)nc3c2CCN(c2cccc4cccc(Cl)c24)C3)CC1CC#N (configuration not stated) + CNC(C)C(=O)NC1CN(S(=O)(=O)c2cccc(S(=O)(=O)N3CCC4CCC(C(=O)NC(c5ccccc5)c5ccccc5)N4C(=O)C(NC(=O)C(C)NC)C3)c2)CCC2CCC(C(=O)NC(c3ccccc3)c3ccccc3)N2C1=O
IC50 (second compound 0.01 µM): < 0.0316 µM
IC50 (second compound 0.0316 µM): < 0.0316 µM
IC50 (second compound 0.1 µM): < 0.0316 µM
IC50 (second compound 0.316 µM): < 0.0316 µM
IC50 (second compound 1 µM): < 0.0316 µM
viability, T/C [33]: 1.99%
viability, T/C [34]: 2.81%
viability, T/C [35]: 1.5%
viability, T/C [36]: 1.02%
viability, T/C [41]: 0.39%
viability, T/C [42]: 0.09%
viability, T/C [37]: 1.12%
viability, T/C [38]: 2.63%
viability, T/C [39]: 1.75%
viability, T/C [40]: 1.07%
viability, T/C [43]: 0.75%
viability, T/C [44]: 0.93%
viability, T/C [3]: 0.94%
viability, T/C [4]: 1.79%
viability, T/C [5]: 1.68%
viability, T/C [6]: 0.86%
viability, T/C [27]: 0.38%
viability, T/C [28]: 0.08%
viability, T/C [9]: 0.86%
viability, T/C [10]: 1.12%
viability, T/C [11]: 1.54%
viability, T/C [12]: 1.37%
viability, T/C [29]: 0.42%
viability, T/C [30]: 0.08%
viability, T/C [15]: 1.4%
viability, T/C [16]: 1.56%
viability, T/C [17]: 1.18%
viability, T/C [18]: 1.49%
viability, T/C [31]: 0.43%
viability, T/C [32]: 0.98%

More lines, main results first:

IC50 (second compound 0.01 µM): < 0.00316 µM
IC50 (second compound 0.0316 µM): < 0.00316 µM
IC50 (second compound 0.1 µM): < 0.00316 µM
IC50 (second compound 0.316 µM): < 0.00316 µM
IC50 (second compound 1 µM): < 0.00316 µM
SMILES: COc1c(OCCCN2CCOCC2)ccc2c3n(c(=NC(=O)c4cnc(N)nc4)nc12)CCN3 + CNC(C)C(=O)NC1CN(S(=O)(=O)c2cccc(S(=O)(=O)N3CCC4CCC(C(=O)NC(c5ccccc5)c5ccccc5)N4C(=O)C(NC(=O)C(C)NC)C3)c2)CCC2CCC(C(=O)NC(c3ccccc3)c3ccccc3)N2C1=O
viability, T/C (second compound 0.01 µM, first compound 0.00316 µM): 3.3%
viability, T/C (second compound 0.01 µM, first compound 0.01 µM): 4.73%
viability, T/C [33]: 3.39%
viability, T/C [34]: 3.64%
viability, T/C [35]: 2.42%
viability, T/C [36]: 3.12%
viability, T/C (second compound 0.0316 µM, first compound 0.00316 µM): 2.47%
viability, T/C (second compound 0.0316 µM, first compound 0.01 µM): 3.12%
viability, T/C [37]: 1.48%
viability, T/C [38]: 1.69%
viability, T/C [39]: 1.21%
viability, T/C [40]: 1.12%
viability, T/C [1]: 2.16%
viability, T/C [2]: 2.68%
viability, T/C [3]: 2.19%
viability, T/C [4]: 1.47%
viability, T/C [5]: 1.18%
viability, T/C [6]: 0.78%
viability, T/C [7]: 1.32%
viability, T/C [8]: 1.65%
viability, T/C [9]: 1.85%
viability, T/C [10]: 1.41%
viability, T/C [11]: 0.21%
viability, T/C [12]: 0.62%
viability, T/C [13]: 1.05%
viability, T/C [14]: 1.1%
viability, T/C [15]: 0.84%
viability, T/C [16]: 0.98%
viability, T/C [17]: 0.77%
viability, T/C [18]: 0.29%

IC50 (second compound 0.00316 µM): < 0.0316 µM
IC50 (second compound 0.01 µM): < 0.0316 µM
IC50 (second compound 0.0316 µM): < 0.0316 µM
IC50 (second compound 0.1 µM): < 0.0316 µM
IC50 (second compound 0.316 µM): 3.78 µM
IC50 (second compound 1 µM): 2.97 µM
SMILES: C#Cc1c(F)ccc2cc(O)cc(-c3ncc4c(N5CC6CCC(C5)N6)nc(OCC56CCCN5CC(F)C6)nc4c3F)c12 (configuration not stated) + CNC(C)C(=O)NC1CN(S(=O)(=O)c2cccc(S(=O)(=O)N3CCC4CCC(C(=O)NC(c5ccccc5)c5ccccc5)N4C(=O)C(NC(=O)C(C)NC)C3)c2)CCC2CCC(C(=O)NC(c3ccccc3)c3ccccc3)N2C1=O
viability, T/C (second compound 0.00316 µM, first compound 0.0316 µM): 4.06%
viability, T/C (second compound 0.00316 µM, first compound 0.1 µM): 5.16%
viability, T/C (second compound 0.00316 µM, first compound 0.316 µM): 5.29%
viability, T/C (second compound 0.00316 µM, first compound 1 µM): 3.82%
viability, T/C (second compound 0.00316 µM, first compound 3.16 µM): 2.11%
viability, T/C (second compound 0.00316 µM, first compound 10 µM): 1.85%
viability, T/C [33]: 1.96%
viability, T/C [34]: 2.54%
viability, T/C [35]: 2.18%
viability, T/C [36]: 3.28%
viability, T/C [41]: 2.31%
viability, T/C [42]: 1.91%
viability, T/C [37]: 1.62%
viability, T/C [38]: 2.61%
viability, T/C [39]: 2.63%
viability, T/C [40]: 1.93%
viability, T/C [43]: 2.58%
viability, T/C [44]: 1.22%
viability, T/C [3]: 1.38%
viability, T/C [4]: 1.67%
viability, T/C [5]: 1.43%
viability, T/C [6]: 1.74%
viability, T/C [27]: 1.84%
viability, T/C [28]: 2.09%
viability, T/C [9]: 112%
viability, T/C [10]: 94.9%
viability, T/C [11]: 96%
viability, T/C [12]: 73%
viability, T/C [29]: 51.6%
viability, T/C [30]: 34.9%
viability, T/C [15]: 99.6%
viability, T/C [16]: 110%
viability, T/C [17]: 97.2%
viability, T/C [18]: 68.8%
viability, T/C [31]: 53.4%
viability, T/C [32]: 38.7%
